In the supplement of paper PMC11208160:

Assay: recombinant barcode read abundance after kanamycin selection (control-corrected) (log10(CPM+1)); higher = more efficient recombination; sequences stand for … in AGTGCAGAGAAAATCGGCCAGTTTTCTCTGCCTGCAGTCCGCATGCCGT…AGATTTATGCAGCGGACTGCCTTTCTCCCAAAGTGATAAACCGGACAGTATCATGGACCGGTTTTCCCGGTAATCCGTATTTGCAAGGTTGGTTTCACT; site = the 11-nt target
How it was run: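 In E. coli, a pooled library matched targets to IS621 bridge RNA target-binding loops and was introduced alongside a donor plasmid. Cells went onto chloramphenicol/ampicillin/kanamycin with 0.1 mM IPTG or onto chloramphenicol/ampicillin LB agar as control, in duplicate. Recombination efficiency, from recombinant-junction barcodes as counts per million, is averaged and control-corrected. It is reported as log10(CPM+1).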
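Further: IS621 recombinase and bridge RNA in Escherichia coli cells.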

Row | Sequence | recombinant barcode read abundance (log10)
1 | CGCTAGACTTGGGTTCTAACCTGTTGCCT (site CGCTGGACTAG) | 0.0628
2 | CGCTAGACTTGGGTTCTAACCTGTTGCCT (site CGCTTGACTAG) | 0.052
3 | CGCTAGTCTTGGGTTCTAACCTGTTGCCT (site CGCTAGTCTAG) | 0.451
4 | CGCTAGTCTTGGGTTCTAACCTGTTGCCT (site CGCTCGTCTAG) | 0.22
5 | CGCTAGTCTTGGGTTCTAACCTGTTGCCT (site CGCTGGTCTAG) | 0.285
6 | CGCTAGTCTTGGGTTCTAACCTGTTGCCT (site CGCTTGTCTAG) | 0.0462
7 | CGCTCATCTTGGGTTCTAACCTGTTGCCT (site CGATCATCTAG) | 0.214
8 | CGCTCATCTTGGGTTCTAACCTGTTGCCT (site CGCTCATCTAG) | 0.0416
9 | CGCTCATCTTGGGTTCTAACCTGTTGCCT (site CGGTCATCTAG) | 0.154
10 | CGCTCATCTTGGGTTCTAACCTGTTGCCT (site CGTTCATCTAG) | 0.211
11 | CGCTCGACTTGGGTTCTAACCTGTTGCCT (site CGCTAGACTAG) | 0.596
12 | CGCTCGACTTGGGTTCTAACCTGTTGCCT (site CGCTCGACTAG) | 0.0944
13 | CGCTCGACTTGGGTTCTAACCTGTTGCCT (site CGCTGGACTAG) | 0.188
14 | CGCTCGACTTGGGTTCTAACCTGTTGCCT (site CGCTTGACTAG) | 0.0207
15 | CGCTGGCCTTGGGTTCTAACCTGTTGCTT (site CGCTGACCTAA) | 0.033
16 | CGCTGGCCTTGGGTTCTAACCTGTTGCTT (site CGCTGCCCTAA) | 0.112

Row | Sequence | recombinant barcode read abundance (log10)
17 | CGCTGGCCTTGGGTTCTAACCTGTTGCTT (site CGCTGGCCTAA) | 0.162
18 | CGCTGGCCTTGGGTTCTAACCTGTTGCTT (site CGCTGTCCTAA) | 0.0658
19 | CGCTTGACTTGGGTTCTAACCTGTTGCCT (site CGCTAGACTAG) | 0.0413
20 | CGCTTGACTTGGGTTCTAACCTGTTGCCT (site CGCTCGACTAG) | 0.164
21 | CGCTTGACTTGGGTTCTAACCTGTTGCCT (site CGCTGGACTAG) | 0.131
22 | CGCTTGACTTGGGTTCTAACCTGTTGCCT (site CGCTTGACTAG) | 0.00854
23 | CGCTTTACTTGGGTTCTAACCTGTTGCCG (site CGCTTTACTCG) | 0.104
24 | CGCTTTACTTGGGTTCTAACCTGTTGCCG (site TAGACATCTAC) | 0.0706
25 | CGGAAATCTTGGGTTCTAACCTGTTGCCT (site CGAAAATCTAG) | 0.171
26 | CGGAAATCTTGGGTTCTAACCTGTTGCCT (site CGCAAATCTAG) | 0.0224
27 | CGGAAATCTTGGGTTCTAACCTGTTGCCT (site CGGAAATCTAG) | 0.127
28 | CGGAAATCTTGGGTTCTAACCTGTTGCCT (site CGTAAATCTAG) | 0.0515
29 | CGGAACACTTGGGTTCTAACCTGTTGCGG (site CGGAACACTCC) | 2.84
30 | CGGAACACTTGGGTTCTAACCTGTTGCGG (site CGGCACACTCC) | 0.755
31 | CGGAACACTTGGGTTCTAACCTGTTGCGG (site CGGGACACTCC) | 0.908
32 | CGGAACACTTGGGTTCTAACCTGTTGCGG (site CGGTACACTCC) | 1.08
